Experimental data from patent US8975398B2, “NAMPT inhibitors” (AbbVie Inc., priority 2012, dated 2015).
pIC50: −log10 of the molar value.

Tests used:
[1] = target: NAMPT (human, recombinant, C-terminally His-tagged) (Homo sapiens, UniProt P43490); assay: Time-Resolved Fluorescence Resonance Energy Transfer (TR-FRET) Binding Assay of NAMPT; conditions: 6.8 nM NAMPT, 200 nM probe, equilibrated 3 hours, absence of substrates
Outline: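 Probe displacement measured by TR-FRET (Ex 337 nm; 520/495 nm ratio) after 3 h room-temperature equilibration of compound with 6.8 nM His-tagged human NAMPT, 1 nM Tb-anti-His antibody and 200 nM Oregon Green 488 nicotinamide-site probe, pH 7.5 HEPES buffer, 2% DMSO. Control-normalized data fit four-parameter logistic for IC50.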

NAMPT = NAMPT (Homo sapiens, UniProt P43490); assay: Time-Resolved Fluorescence Resonance Energy Transfer (TR-FRET) Binding Assay of NAMPT with PRPP; conditions: 2 nM NAMPT, 2 nM probe, 200 uM PRPP and 2.5 mM ATP, equilibrated 16 hours
Outline: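 Binding measured by TR-FRET after a 16-hour equilibration meant to permit enzymatic compound modification. Substrates present at 200 uM PRPP and 2.5 mM ATP, with 2 nM enzyme, 2 nM probe, 1 nM Tb-anti-His antibody and 2% DMSO final.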

Sequence of NAMPT (human, recombinant, C-terminally His-tagged) (P43490 whole entry): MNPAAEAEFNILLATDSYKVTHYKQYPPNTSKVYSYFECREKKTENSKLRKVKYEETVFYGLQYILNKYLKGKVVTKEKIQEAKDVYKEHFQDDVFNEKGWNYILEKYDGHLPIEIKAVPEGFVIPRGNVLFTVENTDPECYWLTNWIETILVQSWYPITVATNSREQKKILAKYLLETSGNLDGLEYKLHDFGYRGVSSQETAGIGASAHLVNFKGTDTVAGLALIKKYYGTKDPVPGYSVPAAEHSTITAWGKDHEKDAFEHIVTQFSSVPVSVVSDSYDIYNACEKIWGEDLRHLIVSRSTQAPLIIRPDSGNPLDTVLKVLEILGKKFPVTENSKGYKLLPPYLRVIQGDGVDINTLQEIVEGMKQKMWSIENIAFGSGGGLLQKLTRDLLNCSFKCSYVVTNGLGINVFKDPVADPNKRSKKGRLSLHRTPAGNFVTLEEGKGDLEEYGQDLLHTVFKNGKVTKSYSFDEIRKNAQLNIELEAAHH
Sequence of NAMPT (P43490 whole entry): as above

| SMILES | pIC50 [1] | pIC50 (NAMPT) |
| --- | --- | --- |
| O=C(Nc1ccc(OC2CCN(C(=O)Cc3ccc(F)cc3)CC2)cc1)C1CN(c2cccnn2)C1 [Example 232, N-[4-({1-[(4-fluorophenyl)acetyl]piperidin-4-yl}oxy)phenyl]-1-(pyridazin-3-yl)azetidine-3-carboxamide] | 6.85 | 9.25 |
| O=C(Nc1ccc(OC2CCN(C(=O)c3ccc(F)c(F)c3)CC2)cc1)C1CN(c2cccnn2)C1 [Example 234, N-(4-{[1-(3,4-difluorobenzoyl)piperidin-4-yl]oxy}phenyl)-1-(pyridazin-3-yl)azetidine-3-carboxamide] | 6.73 | 9.14 |
| O=C(Nc1ccc(OC2CCN(C(=O)c3ccc(OC(F)(F)F)cc3)CC2)cc1)C1CN(c2cccnn2)C1 [Example 235, 1-(pyridazin-3-yl)-N-[4-({1-[4-(trifluoromethoxy)benzoyl]piperidin-4-yl}oxy)phenyl]azetidine-3-carboxamide] | 6.55 | 8.85 |
| O=C(Nc1ccc(OC2CCN(C(=O)Cc3ccc(F)cc3F)CC2)cc1)C1CN(c2cccnn2)C1 [Example 236, N-[4-({1-[(2,4-difluorophenyl)acetyl]piperidin-4-yl}oxy)phenyl]-1-(pyridazin-3-yl)azetidine-3-carboxamide] | 6.89 | 8.95 |
| O=C(Nc1ccc(OC2CCN(C(=O)c3ccc(C(F)(F)F)cc3)CC2)cc1)C1CN(c2cccnn2)C1 [Example 237, 1-(pyridazin-3-yl)-N-[4-({1-[4-(trifluoromethyl)benzoyl]piperidin-4-yl}oxy)phenyl]azetidine-3-carboxamide] | 6.62 | 8.90 |
| O=C(Nc1ccc(OC2CCN(C(=O)Cc3ccc(OC(F)(F)F)cc3)CC2)cc1)C1CN(c2cccnn2)C1 [Example 238, 1-(pyridazin-3-yl)-N-{4-[(1-{[4-(trifluoromethoxy)phenyl]acetyl}piperidin-4-yl)oxy]phenyl}azetidine-3-carboxamide] | 6.68 | 9.26 |
| O=C(Nc1ccc(OC2CCN(C(=O)Cc3cc(F)cc(F)c3)CC2)cc1)C1CN(c2cccnn2)C1 [Example 239, N-[4-({1-[(3,5-difluorophenyl)acetyl]piperidin-4-yl}oxy)phenyl]-1-(pyridazin-3-yl)azetidine-3-carboxamide] | 6.95 | 9.08 |
| O=C(Nc1ccc(OC2CCN(C(=O)Cc3cccc(C(F)(F)F)c3)CC2)cc1)C1CN(c2cccnn2)C1 [Example 240, 1-(pyridazin-3-yl)-N-{4-[(1-{[3-(trifluoromethyl)phenyl]acetyl}piperidin-4-yl)oxy]phenyl}azetidine-3-carboxamide] | 6.72 | 9.03 |
| O=C(Nc1ccc(OC2CCN(C(=O)Cc3ccccc3F)CC2)cc1)C1CN(c2cccnn2)C1 [Example 247, N-[4-({1-[(2-fluorophenyl)acetyl]piperidin-4-yl}oxy)phenyl]-1-(pyridazin-3-yl)azetidine-3-carboxamide] | 7.07 | 8.99 |
| CC(C)(C)CC(=O)N1CC(Oc2ccc(NC(=O)C3CN(c4ccnnc4)C3)cc2)C1 [Example 254, N-(4-{[1-(3,3-dimethylbutanoyl)azetidin-3-yl]oxy}phenyl)-1-(pyridazin-4-yl)azetidine-3-carboxamide] | 7.47 | 7.95 |
| O=C(Nc1ccc(OC2CN(C(=O)C3CCCCC3)C2)cc1)C1CN(c2ccnnc2)C1 [Example 255, N-(4-{[1-(cyclohexylcarbonyl)azetidin-3-yl]oxy}phenyl)-1-(pyridazin-4-yl)azetidine-3-carboxamide] | 7.33 | 7.42 |
| O=C(Nc1ccc(OC2CN(C(=O)CC3CCOCC3)C2)cc1)C1CN(c2ccnnc2)C1 [Example 256, 1-(pyridazin-4-yl)-N-(4-{[1-(tetrahydro-2H-pyran-4-ylacetyl)azetidin-3-yl]oxy}phenyl)azetidine-3-carboxamide] | 7.04 | 7.42 |
| CC1CC1C(=O)N1CC(Oc2ccc(NC(=O)C3CN(c4ccnnc4)C3)cc2)C1 (centres unmarked) [Example 257, N-[4-({1-[(2-methylcyclopropyl)carbonyl]azetidin-3-yl}oxy)phenyl]-1-(pyridazin-4-yl)azetidine-3-carboxamide] | 7.19 | 7.38 |
| O=C(Nc1ccc(OC2CN(C(=O)CC(F)(F)F)C2)cc1)C1CN(c2ccnnc2)C1 [Example 258, 1-(pyridazin-4-yl)-N-(4-{[1-(3,3,3-trifluoropropanoyl)azetidin-3-yl]oxy}phenyl)azetidine-3-carboxamide] | 6.97 | 7.46 |
| O=C(Nc1ccc(OC2CN(C(=O)C3CCCC3)C2)cc1)C1CN(c2ccnnc2)C1 [Example 259, N-(4-{[1-(cyclopentylcarbonyl)azetidin-3-yl]oxy}phenyl)-1-(pyridazin-4-yl)azetidine-3-carboxamide] | 7.49 | 7.75 |
| CC(C)(C)CC(=O)N1CCC(Oc2ccc(NC(=O)C3CN(c4ccnnc4)C3)cc2)CC1 [Example 260, N-(4-{[1-(3,3-dimethylbutanoyl)piperidin-4-yl]oxy}phenyl)-1-(pyridazin-4-yl)azetidine-3-carboxamide] | 7.12 | 7.72 |
| O=C(Nc1ccc(OC2CN(C(=O)C3CCC3)C2)cc1)C1CN(c2ccnnc2)C1 [Example 261, N-(4-{[1-(cyclobutylcarbonyl)azetidin-3-yl]oxy}phenyl)-1-(pyridazin-4-yl)azetidine-3-carboxamide] | 7.20 | 7.63 |

The remaining lines, values ahead:

| pIC50 [1] | pIC50 (NAMPT) | SMILES |
| --- | --- | --- |
| 6.76 | 9.08 | O=C(Nc1ccc(OC2CCN(C(=O)c3cccc(F)c3)CC2)cc1)C1CN(c2cccnn2)C1 [Example 231, N-(4-{[1-(3-fluorobenzoyl)piperidin-4-yl]oxy}phenyl)-1-(pyridazin-3-yl)azetidine-3-carboxamide] |
| 6.95 | 9.21 | O=C(Nc1ccc(OC2CCN(C(=O)CC3CC3)CC2)cc1)C1CN(c2cccnn2)C1 [Example 233, N-(4-{[1-(cyclopropylacetyl)piperidin-4-yl]oxy}phenyl)-1-(pyridazin-3-yl)azetidine-3-carboxamide] |
| 6.88 | 9.09 | CC(C)(C)C(=O)N1CCC(Oc2ccc(NC(=O)C3CN(c4cccnn4)C3)cc2)CC1 [Example 241, N-(4-{[1-(2,2-dimethylpropanoyl)piperidin-4-yl]oxy}phenyl)-1-(pyridazin-3-yl)azetidine-3-carboxamide] |
| 6.56 | 8.93 | O=C(Nc1ccc(OC2CCN(C(=O)c3ccccn3)CC2)cc1)C1CN(c2cccnn2)C1 [Example 242, 1-(pyridazin-3-yl)-N-(4-{[1-(pyridin-2-ylcarbonyl)piperidin-4-yl]oxy}phenyl)azetidine-3-carboxamide] |
| 6.57 | 9.01 | O=C(Nc1ccc(OC2CCN(C(=O)c3cc(F)cc(F)c3)CC2)cc1)C1CN(c2cccnn2)C1 [Example 243, N-(4-{[1-(3,5-difluorobenzoyl)piperidin-4-yl]oxy}phenyl)-1-(pyridazin-3-yl)azetidine-3-carboxamide] |
| 6.35 | 9.04 | CC(=O)N1CCC(Oc2ccc(NC(=O)C3CN(c4cccnn4)C3)cc2)CC1 [Example 244, -{4-[(1-acetylpiperidin-4-yl)oxy]phenyl}-1-(pyridazin-3-yl)azetidine-3-carboxamide] |
| 7.00 | 9.15 | O=C(Nc1ccc(OC2CCN(C(=O)c3ccc(Cl)cc3)CC2)cc1)C1CN(c2cccnn2)C1 [Example 245, N-(4-{[1-(4-chlorobenzoyl)piperidin-4-yl]oxy}phenyl)-1-(pyridazin-3-yl)azetidine-3-carboxamide] |
| 6.75 | 9.17 | COCC(=O)N1CCC(Oc2ccc(NC(=O)C3CN(c4cccnn4)C3)cc2)CC1 [Example 246, N-(4-{[1-(methoxyacetyl)piperidin-4-yl]oxy}phenyl)-1-(pyridazin-3-yl)azetidine-3-carboxamide] |
| 7.08 | 9.09 | CCC(C)(C)C(=O)N1CCC(Oc2ccc(NC(=O)C3CN(c4cccnn4)C3)cc2)CC1 [Example 248, N-(4-{[1-(2,2-dimethylbutanoyl)piperidin-4-yl]oxy}phenyl)-1-(pyridazin-3-yl)azetidine-3-carboxamide] |
| 7.22 | 9.22 | O=C(Nc1ccc(OC2CCN(C(=O)c3cccs3)CC2)cc1)C1CN(c2cccnn2)C1 [Example 249, 1-(pyridazin-3-yl)-N-(4-{[1-(thiophen-2-ylcarbonyl)piperidin-4-yl]oxy}phenyl)azetidine-3-carboxamide] |
| 6.97 | 9.19 | O=C(Nc1ccc(OC2CCN(C(=O)c3cccc(Cl)c3)CC2)cc1)C1CN(c2cccnn2)C1 [Example 250, N-(4-{[1-(3-chlorobenzoyl)piperidin-4-yl]oxy}phenyl)-1-(pyridazin-3-yl)azetidine-3-carboxamide] |
| 6.64 | 9.06 | O=C(Nc1ccc(OC2CCN(C(=O)C3CC3)CC2)cc1)C1CN(c2cccnn2)C1 [Example 251, N-(4-{[1-(cyclopropylcarbonyl)piperidin-4-yl]oxy}phenyl)-1-(pyridazin-3-yl)azetidine-3-carboxamide] |
| 6.62 | 8.96 | O=C(Nc1ccc(OC2CCN(C(=O)CC(F)(F)F)CC2)cc1)C1CN(c2cccnn2)C1 [Example 252, 1-(pyridazin-3-yl)-N-(4-{[1-(3,3,3-trifluoropropanoyl)piperidin-4-yl]oxy}phenyl)azetidine-3-carboxamide] |
| 6.87 | 9.19 | CC(C)C(=O)N1CCC(Oc2ccc(NC(=O)C3CN(c4cccnn4)C3)cc2)CC1 [Example 253, N-(4-{[1-(2-methylpropanoyl)piperidin-4-yl]oxy}phenyl)-1-(pyridazin-3-yl)azetidine-3-carboxamide] |
